According to patent publication US9173892B2, “Acadesine derivatives, products and compositions including same, therapeutic uses thereof, and methods for synthesizing same” (Universite Nice Sophia Antipolis, priority 2011, dated 2015):
Like-named read-outs stand apart in the source and are kept apart here. Values belong to the molecule of their own block, whether it stands above or below them.

Key:
[1] = system: imatinib-resistant CML K562 cells; test: tumor growth of imatinib-resistant CML K562 cells in athymic nude mice; type: in vivo; conditions: 1 mg/kg; for Mean weight of the mice on the day of sacrifice: control group 18.63, in g (unit assumed); for Mass of tumors at the end of the campaign (% vs. control): sum of tumor masses on the day of sacrifice
Procedure: The three compounds (86, 196 and 236) were tested at 1 mg/kg on the tumor growth of imatinib-resistant CML K562 cells in athymic nude mice. The tumors of the mice of each group are weighed on the day of sacrifice, and the sum of these masses constitutes a tumor growth index. This index is expressed as a percentage with respect to the growth of the control group (second line).

K562 cells [2] = test: cell viability (XTT) of imatinib-sensitive K562 cells; type: cell-based, human; conditions: K562; for viability at 500 µM / IC50: Homo sapiens, XTT; for viability at 500 µM: 0.5 mM, read-out: percentage of viable cells; for IC50: dose-response 5, 10, 25 and 50 μM; for efficacy in dose-response experiment (number of viable cells): 5, 10, 25 and 50 μM, compounds effective at concentrations as low as 5 μM
Procedure: (§1) The K562 leukemic cell line is obtained from the pleural effusion of a patient with CML. This line is a good model for studying this disease. […] The K562 and ImaR cells are cultivated at 37° C. under 5% CO2 in an RPMI 1640 medium containing 5% fetal bovine serum and supplemented with sodium pyruvate and antibiotics (penicillin-streptomycin).
(§2) FIGS. 1 to 4 reflect the study of the cell viability.
(§3) After the addition of XTT reagent, the absorbance is measured at 490 nm.
as §3, §3
After adding XTT reagent, the absorbance is measured at 490 nm.

ImaR cells [3] = test: cell viability (XTT) of imatinib-resistant ImaR cells; type: cell-based, human; conditions: for viability at 500 µM / IC50: Homo sapiens, XTT; for viability at 500 µM: 0.5 mM, 24 hours, read-out: percentage of viable cells; for IC50: dose-response 5, 10, 25 and 50 μM, 24 or 48 hours, Example 1 (Table 1 codes); for efficacy in dose-response experiment (number of viable cells): 5, 10, 25 and 50 μM, compounds effective at concentrations as low as 5 μM
Procedure: as §1, §2, §3, §3

K562 cells [4] = test: western blot of apoptosis and autophagy markers, K562 cells; type: cell-based, human; conditions: for expression of p62/SQSTM1 / LC3 cleavage (LC3-I into LC3-II) / PARP cleavage (fragment at 85 kDa): K562, 24 hours; for expression of p62/SQSTM1 / LC3 cleavage (LC3-I into LC3-II): AICAR 1 mM; for expression of p62/SQSTM1: 82, 86, 112 at 2.5 μM, 15, 23, 191 at 10 μM; for LC3 cleavage (LC3-I into LC3-II): 82, 86 at 2.5 μM, 15, 23, 191, 49 at 10 μM; for type of programmed cell death induced: conclusion of Example 1, K562 and ImaR cells; for PARP cleavage (fragment at 85 kDa): imatinib 3 μM, 112 at 2.5 μM, 15, 23, 49 at 10 μM
Procedure: (§4) The cells are lyzed and 35 μg of proteins are separated by SDS-PAGE (12 or 14% polyacrylamide gel) and analyzed by western blot with antibodies specific to each of the markers.

ImaR cells [5] = test: flow cytometry analysis of the cell cycle, ImaR cells; type: cell-based, human; conditions: for proportion of cells in the G2/M phase: 24 hours, 82, 86, 112 at 2.5 μM, 15, 23, 191, 49 at 10 μM; for cells in phase G0/G1 / cells in the subG1 phase: 24 hours, imatinib 3 μM, 112 at 2.5 μM, 15, 23, 49 at 10 μM
Procedure: (§5) The x-axis of the graph of FIG. 9 corresponds to the quantity of DNA marked with propidium iodide while the y-axis corresponds to the number of cells. […] The nucleii are marked with propidium iodide, then the proportion of cells in the different phases of the cell cycle (subG1, G0/G1, S, G2/M) is determined.

ImaR cells [6] = test: western blot of apoptosis and autophagy markers, ImaR cells; type: cell-based, human; conditions: 24 hours; for expression of p62/SQSTM1: AICAR 1 mM, 82, 86, 112 at 2.5 μM, 15, 23, 191 at 10 μM; for LC3 cleavage (LC3-I into LC3-II): AICAR 1 mM, 82, 86 at 2.5 μM, 15, 23, 191, 49 at 10 μM; for PARP cleavage (fragment at 85 kDa): imatinib 3 μM, 112 at 2.5 μM, 15, 23, 49 at 10 μM
Procedure: as §4

K562 cells [7] = test: flow cytometry analysis of the cell cycle, K562 cells; type: cell-based, human; conditions: for proportion of cells in the G2/M phase: 24 hours, 82, 86, 112 at 2.5 μM, 15, 23, 191, 49 at 10 μM; for cells in phase G0/G1 / cells in the subG1 phase: 24 hours, imatinib 3 μM, 112 at 2.5 μM, 15, 23, 49 at 10 μM
Procedure: as §5, with “nuclei” for “nucleii”

caspase-9 [8] = test: caspase-9 activity (Ac-LEHD-AMC) in ImaR cells; type: cell-based, human; conditions: 24 hours, imatinib 3 μM, 112 2.5 μM, 15 and 23 10 μM
Procedure: (§6) The cells are lyzed and the caspase-9 activities are measured using 10 μg of proteins and Ac-LEHD-AMC. The fluorescence emission at 460 nm resulting from the release of AMC is then recorded.

caspase-9 [9] = test: caspase-9 activity (Ac-LEHD-AMC) in K562 cells; type: cell-based, human; conditions: for caspase-9 activity: K562, 24 hours, imatinib 3 μM, 112 2.5 μM, 15 and 23 10 μM; for pathway relaying the induced apoptosis: conclusion of Example 1, K562 and ImaR cells
Procedure: as §6

[10] = 48 hours, Example 2 (Table 2 codes)
[11] = 24 or 48 hours, Example 1 (Table 1 codes)

SMILES: CCOC(=O)c1nnn([C@@H]2O[C@H](CO)[C@H]3OC(C)(C)O[C@H]32)c1-c1cccs1 [Compound 236, 1′-(4-ethoxycarbonyl-5-(2-thienyl)-[1,2,3]-triazol-1-yl)-2′,3′-O-isopropylidene-β-D-ribofuranose]
Mean weight of the mice on the day of sacrifice [1]: 20.14 | Mass of tumors at the end of the campaign (% vs. control) [1]: 60.3 % vs. control

SMILES: C#Cc1c(C(=O)OC)nnn1[C@@H]1O[C@H](CO)[C@@H](O)[C@H]1O [Compound 29, 1′-(4-methoxycarbonyl-5-ethynyl-[1,2,3]-triazol-1-yl)-β-D-ribofuranose]
viability at 500 µM (K562 cells [2]; [10]): < 20%

SMILES: CCCCCCCC#Cc1c(CCCCCCC)nnn1[C@@H]1O[C@H](COC(C)=O)[C@@H](OC(C)=O)[C@H]1OC(C)=O [Compound 176, 1′-(4-heptyl-5-(non-1-yn-1-yl)-[1,2,3]-triazol-1-yl)-2′,3′,5′-tri-O-acetyl-β-D-ribofuranose]
viability at 500 µM (ImaR cells [3]): < 10% | viability at 500 µM (K562 cells [2]; 24 hours): < 10%

SMILES: CCOC(=O)c1nnn([C@@H]2O[C@H](COC(C)=O)[C@@H](OC(C)=O)[C@H]2OC(C)=O)c1C(=O)c1ccc(C)cc1 [Compound 32, 1′-(4-ethoxycarbonyl-5-p-toluoyl-[1,2,3]-triazol-1-yl)-2′,3′,5′-tri-O-acetyl-β-D-ribofuranose]
viability at 500 µM (K562 cells [2]; [10]): < 20%

SMILES: CCOC(=O)C#Cc1c(C(=O)OCC)nnn1C1OC(COC(C)=O)C(OC(C)=O)C(OC(C)=O)C1OC(C)=O [Compound 196, 1′-(4-ethoxycarbonyl-5-ethyl propiolate-[1,2,3]-triazol-1-yl)-2′,3′,4′,6′-tetra-O-acetyl-β-D-glucopyranose]
inhibition of the tumor mass [1]: around 60% | Mean weight of the mice on the day of sacrifice [1]: 20.5 | Mass of tumors at the end of the campaign (% vs. control) [1]: 42 % vs. control

SMILES: CCOC(=O)C#Cc1c(C(=O)OCC)nnn1Cc1ccc2ccccc2c1 [Compound 25]
viability at 500 µM (ImaR cells [3]): < 10% | viability at 500 µM (K562 cells [2]; 24 hours): < 10%

More lines, main results first:

IC50 (K562 cells [2]; [11]): ~10 µM | IC50 (K562 cells [2]; [10]): ~5 µM
SMILES: CCOC(=O)c1nnn(Cc2ccc3ccccc3c2)c1I [Compound 23]
viability at 500 µM (ImaR cells [3]): < 10% | IC50 (ImaR cells [3]): ~10 µM | viability at 500 µM (K562 cells [2]; 24 hours): < 10%

Mean weight of the mice on the day of sacrifice [1]: 18.43 | IC50 (K562 cells [2]; [11]): ~2.5 µM
SMILES: CCOC(=O)c1nnn([C@@H]2O[C@H](COC(C)=O)[C@@H](OC(C)=O)[C@H]2OC(C)=O)c1-c1ccccc1 [Compound 86, 1′-(4-ethoxycarbonyl-5-phenyl-[1,2,3]-triazol-1-yl)-2′,3′,5′-tri-O-acetyl-β-D-ribofuranose]
expression of p62/SQSTM1 (K562 cells [4]): increase in the expression | LC3 cleavage (LC3-I into LC3-II) (K562 cells [4]): cleaved | type of programmed cell death induced (K562 cells [4]): autophagy alone | proportion of cells in the G2/M phase (ImaR cells [5]): increase | Mass of tumors at the end of the campaign (% vs. control) [1]: 69.6 % vs. control | expression of p62/SQSTM1 (ImaR cells [6]): increase in the expression | LC3 cleavage (LC3-I into LC3-II) (ImaR cells [6]): cleaved | efficacy in dose-response experiment (number of viable cells) (ImaR cells [3]): particularly effective | viability at 500 µM (ImaR cells [3]): < 10% | IC50 (ImaR cells [3]): ~2.5 µM | viability at 500 µM (K562 cells [2]; 24 hours): < 10% | efficacy in dose-response experiment (number of viable cells) (K562 cells [2]): particularly effective | proportion of cells in the G2/M phase (K562 cells [7]): increase

IC50 (K562 cells [2]; [10]): ~5 µM
SMILES: CCCCCCC(=O)c1c(C(=O)OCC)nnn1[C@@H]1O[C@H](COC(C)=O)[C@@H](OC(C)=O)[C@H]1OC(C)=O [Compound 30, 1′-(4-ethoxycarbonyl-5-heptanoyl-[1,2,3]-triazol-1-yl)-2′,3′,5′-tri-O-acetyl-β-D-ribofuranose]

IC50 (K562 cells [2]; [11]): ~10 µM
SMILES: CCOC(=O)c1nnn([C@@H]2O[C@H](COC(C)=O)[C@@H](OC(C)=O)[C@H]2OC(C)=O)c1Cl [Compound 15, 1′-(4-ethoxycarbonyl-5-chloro-[1,2,3]-triazol-1-yl)-2′,3′,5′-tri-O-acetyl-β-D-ribofuranose]
caspase-9 activity (caspase-9 [8]): activation | expression of p62/SQSTM1 (K562 cells [4]): increase in the expression | LC3 cleavage (LC3-I into LC3-II) (K562 cells [4]): cleaved | PARP cleavage (fragment at 85 kDa) (K562 cells [4]): appearance of the characteristic cleavage fragment at 85 kDa | type of programmed cell death induced (K562 cells [4]): combination of the two types of mechanisms | proportion of cells in the G2/M phase (ImaR cells [5]): increase | cells in phase G0/G1 (ImaR cells [5]): reduction | cells in the subG1 phase (ImaR cells [5]): very pronounced accumulation | expression of p62/SQSTM1 (ImaR cells [6]): increase in the expression | LC3 cleavage (LC3-I into LC3-II) (ImaR cells [6]): cleaved | PARP cleavage (fragment at 85 kDa) (ImaR cells [6]): appearance of the characteristic cleavage fragment at 85 kDa | efficacy in dose-response experiment (number of viable cells) (ImaR cells [3]): particularly effective | viability at 500 µM (ImaR cells [3]): < 10% | IC50 (ImaR cells [3]): ~10 µM | viability at 500 µM (K562 cells [2]; 24 hours): < 10% | efficacy in dose-response experiment (number of viable cells) (K562 cells [2]): particularly effective | caspase-9 activity (caspase-9 [9]): activation | pathway relaying the induced apoptosis (caspase-9 [9]): intrinsic pathway | proportion of cells in the G2/M phase (K562 cells [7]): increase | cells in phase G0/G1 (K562 cells [7]): reduction | cells in the subG1 phase (K562 cells [7]): very pronounced accumulation

IC50 (K562 cells [2]; [10]): ~5 µM
SMILES: COC(=O)c1nnn([C@@H]2O[C@H](CO)[C@@H](O)[C@H]2O)c1I [Compound 21, 1′-(4-methoxycarbonyl-5-iodo-[1,2,3]-triazol-1-yl)-β-D-ribofuranose]
viability at 500 µM (K562 cells [2]; [10]): < 20%

IC50 (K562 cells [2]; [11]): ~2.5 µM
SMILES: CCOC(=O)C#Cc1c(C(=O)OCC)nnn1Cc1ccc(C)cc1 [Compound 112, 1-(4-methylbenzyl)-4-ethoxycarbonyl-5-ethyl propiolate-1,2,3-triazole]
caspase-9 activity (caspase-9 [8]): activation | expression of p62/SQSTM1 (K562 cells [4]): increase in the expression | PARP cleavage (fragment at 85 kDa) (K562 cells [4]): appearance of the characteristic cleavage fragment at 85 kDa | type of programmed cell death induced (K562 cells [4]): apoptosis alone | cells in phase G0/G1 (ImaR cells [5]): reduction | cells in the subG1 phase (ImaR cells [5]): very pronounced accumulation | expression of p62/SQSTM1 (ImaR cells [6]): increase in the expression | PARP cleavage (fragment at 85 kDa) (ImaR cells [6]): appearance of the characteristic cleavage fragment at 85 kDa | efficacy in dose-response experiment (number of viable cells) (ImaR cells [3]): particularly effective | viability at 500 µM (ImaR cells [3]): < 10% | IC50 (ImaR cells [3]): ~2.5 µM | viability at 500 µM (K562 cells [2]; 24 hours): < 10% | efficacy in dose-response experiment (number of viable cells) (K562 cells [2]): particularly effective | caspase-9 activity (caspase-9 [9]): activation | pathway relaying the induced apoptosis (caspase-9 [9]): intrinsic pathway | cells in phase G0/G1 (K562 cells [7]): reduction | cells in the subG1 phase (K562 cells [7]): very pronounced accumulation

IC50 (K562 cells [2]; [10]): ~5 µM
SMILES: OC[C@H]1O[C@@H](n2nnc(-c3ccccc3)c2I)[C@H](O)[C@@H]1O [Compound 24, 1′-(4-phenyl-5-iodo-[1,2,3]-triazol-1-yl)-β-D-ribofuranose]
